The source of these data is patent publication US11414379B2, “SPAK kinase inhibitors as neuroprotective agents” (United States Government as represented by the Department …, priority 2018, dated 2022).

SMILES strings stand for the structures. “Also recorded” adds a separate entry of the source.

The test system of series [1] is mouse model of ischemic stroke. As to the kind of experiment: Infarct volume and hemispheric swelling after transient MCAO. In kind it is in vivo. The following applies: 2.5 mg/kg; 24 hr reperfusion. An excerpt:
Under an operating microscope, the left common carotid artery was exposed through a midline incision. […] The ECA was dissected further distally and permanently ligated. The internal carotid artery (ICA) was isolated and carefully separated from the adjacent vagus nerve. A 12 mm length of silicon-coated nylon filament (size 6-0, native diameter 0.11 mm; diameter with coating 0.21+/−0.02 mm; coating length 5-6 mm; Doccol Corporation, Sharon, Mass.) was introduced into the ECA lumen through a puncture. The silk suture around the ECA stump was tightened around the intraluminal nylon suture to prevent bleeding. The nylon suture was then gently advanced from the ECA to the ICA lumen until mild resistance was felt (˜9 mm). For reperfusion, the suture was withdrawn 50 min after MCAO to restore blood flow. Body temperature was maintained for the duration of the experiment between 36.5° C.-37° C. with a small animal heating pad (Kent Scientific).
At 24 hours reperfusion, mice were anesthetized with 5% isoflurane and then decapitated. Coronal brain tissue slices (2 mm) were stained for 20 minutes at 37° C. with 1% 2,3,5-triphenyltetrazolium chloride monohydrate (TTC; Sigma, St Louis, Mo.) in PBS solution. […] The extent of hemispheric swelling was calculated using the following equation: swelling (% contralateral side)=[(volume of ipsilateral hemisphere−volume of contralateral hemisphere)/volume of contralateral hemisphere]×100 (Bhuiyan et al. (2017) Journal of cerebral blood flow and metabolism: official journal of the International Society of Cerebral Blood Flow and Metabolism 37: 2780-2794).
Referring to FIG. 11A, an experimental design of ischemic stroke study is shown. Vehicle or ZT-1a is administered at 3 hrs and 8 hrs post-MCAO.
Referring to FIG. 11B, representative images and quantification of infarct volume and hemispheric swelling in TTC-stained coronal sections of mouse brains 24 hrs post-MCAO are shown. Vehicle (DMSO, 2 ml/kg) or ZT-1a (2.5 or 5.0 mg/kg) were administered with an initial half dose at 3 hrs and the second half dose at 8 hr reperfusion via intra-peritoneal injection (i.p.). Data are mean±SD, n=6-12 per group (male). * p<0.05.

The subject of series [2] is mice. As to the kind of experiment: Adverse effects of WNK463 administered to mice. It is filed as in vivo, mouse. Particulars: 2.5 mg/kg dose.
For series [3], the system named is all four WNK kinases. The following applies: cited from earlier work.
Series [4] relates to normotensive and hypertensive rodent models. The following applies: oral administration of 1-10 mg/kg; cited from earlier work.

Turning to `CC(C)(C)NC(=O)c1cncn1C1CCN(c2ccc(-c3nnc(C(F)(F)F)o3)cn2)CC1` [WNK463], the “effect on infarct volume and hemispheric swelling” value in series [1] is listed as “reduced neither infarct volume nor hemispheric swelling; also recorded: no neuroprotective effects”. In addition, the adverse effects entry in series [2] was “ataxia and breathing difficulties”. For the same compound, in series [3], the “inhibition of WNK kinases in vitro” value is “nanomolar range”. The “effect on blood pressure” value in series [4] is given as “reduced blood pressure”.
